Measurements from ChEMBL document CHEMBL3301546, “MMV Malaria Box yeast growth screening”.

Legend:
Type in all cases: functional
Saccharomyces cerevisiae [1] = assay: (§1) MMV: Growth assays were conducted using the prototrophic S. cerevisiae strain JHY222. Each MMV compound (0.1 mM) was tested in minimal media containing dextrose as a carbon source (Yeast Nitrogen Base, Dextrose; YNBD). The growth rate in the presence of each MMV compound was calculated as follows: (i) the first 10 OD readings were averaged and subtracted from all OD readings of the corresponding curve to set the baseline of the growth curve to zero, and (ii) the area under the curve (AUC) was then calculated as the sum of all OD readings. […] A relative growth value was calculated as follows: AUC(DRUG) - AUC(DMSO)/AUC(DMSO); where AUC(DMSO) represents growth measured in a DMSO control well that was on the same microtiter plate of the drug-treated culture.
Saccharomyces cerevisiae [2] = assay: as §1, with “ethanol and glycerol” for “dextrose”, “as” for “as a”, “sources” for “source”, “Ethanol, Glycerol; YNBEG).” for “Dextrose; YNBD).”
Saccharomyces cerevisiae [3] = assay: as §1, with “rich” for “minimal”, “Extract, Peptone,” for “Nitrogen Base,”, “YPD).” for “YNBD).”

In the case of `Cc1ccc(C2CC(C(F)(F)F)n3nc(C(=O)N4CCN(C(c5ccccc5)c5ccccc5)CC4)cc3N2)cc1` (stereo unspecified), the “Relative Growth” value (Saccharomyces cerevisiae [1]) was -0.1134, the “Relative Growth” value (Saccharomyces cerevisiae [2]) was -0.019 and the “Relative Growth” value (Saccharomyces cerevisiae [3]) was 0.0315.
`Oc1c(CN2CCN(c3ccccc3F)CC2)cc(Br)c2cccnc12` was tested, and the “Relative Growth” value (Saccharomyces cerevisiae [1]) was 0.0189, the “Relative Growth” value (Saccharomyces cerevisiae [2]) was 0.0379 and the “Relative Growth” value (Saccharomyces cerevisiae [3]) was -0.0397.
For `CCOC(=O)c1cnc2ccc(CC)cc2c1O`, the “Relative Growth” value (Saccharomyces cerevisiae [1]) was 0.0544, the “Relative Growth” value (Saccharomyces cerevisiae [2]) was -0.0424 and the “Relative Growth” value (Saccharomyces cerevisiae [3]) was -0.243.
`Cc1ccc(OCCCCCCNCCO)c(C)c1` was tested, and the “Relative Growth” value (Saccharomyces cerevisiae [1]) was 0.026, the “Relative Growth” value (Saccharomyces cerevisiae [2]) was -0.0581 and the “Relative Growth” value (Saccharomyces cerevisiae [3]) was -0.034.
With `CC(C)=CCN1CCC(C(=O)Nc2ccc(-c3nc4ccccc4[nH]3)cc2)CC1` the “Relative Growth” value (Saccharomyces cerevisiae [1]) was 0.0091, the “Relative Growth” value (Saccharomyces cerevisiae [2]) was 0.1138 and the “Relative Growth” value (Saccharomyces cerevisiae [3]) was -0.0484.
`O=C(O)C(=O)O.Oc1ccc(Br)cc1CN1CCN(Cc2cccc(F)c2)CC1` was tested, and the “Relative Growth” value (Saccharomyces cerevisiae [1]) was -0.047, the “Relative Growth” value (Saccharomyces cerevisiae [2]) was -0.3839 and the “Relative Growth” value (Saccharomyces cerevisiae [3]) was -0.1015.
For `CCCCOC(=O)c1ccc(Nc2cc(C)nc3ccc(OC)cc23)cc1`, the “Relative Growth” value (Saccharomyces cerevisiae [1]) was -0.0919, the “Relative Growth” value (Saccharomyces cerevisiae [2]) was -0.3112 and the “Relative Growth” value (Saccharomyces cerevisiae [3]) was -0.1158.
`CC(C)(C)c1ccc(C2CC3=Nc4ccccc4N(C(=O)c4ccccc4Cl)C(c4ccc(F)cc4)C3=C(O)C2)cc1` (stereo unspecified) was tested, and the “Relative Growth” value (Saccharomyces cerevisiae [1]) was -0.0515, the “Relative Growth” value (Saccharomyces cerevisiae [2]) was -0.3538 and the “Relative Growth” value (Saccharomyces cerevisiae [3]) was -0.0874.
`COc1ccccc1NC1=C(N2CCCCC2)C(=O)c2ccccc2C1=O` was tested, and the “Relative Growth” value (Saccharomyces cerevisiae [1]) was 0.0574, the “Relative Growth” value (Saccharomyces cerevisiae [2]) was 0.1747 and the “Relative Growth” value (Saccharomyces cerevisiae [3]) was -0.0045.
`Cc1ccc2cc3c(N)c4c(C)ccc(C)c4nc3nc2c1` was tested, and the “Relative Growth” value (Saccharomyces cerevisiae [1]) was 0.1003, the “Relative Growth” value (Saccharomyces cerevisiae [2]) was 0.0509 and the “Relative Growth” value (Saccharomyces cerevisiae [3]) was 0.0134.
For `O=c1cc(NC2CCN(CCCc3ccccc3)CC2)c2cc(Cl)ccc2o1`, the “Relative Growth” value (Saccharomyces cerevisiae [1]) was 0.014, the “Relative Growth” value (Saccharomyces cerevisiae [2]) was 0.0246 and the “Relative Growth” value (Saccharomyces cerevisiae [3]) was -0.0193.
For `O=C(Nc1ccc(Br)cc1)Nc1cccc(Cl)c1`, the “Relative Growth” value (Saccharomyces cerevisiae [1]) was -0.1739, the “Relative Growth” value (Saccharomyces cerevisiae [2]) was -0.1301 and the “Relative Growth” value (Saccharomyces cerevisiae [3]) was -1.0018.
In the case of `O=C(NCCCN1CCC(N2CCCCC2)CC1)C1=Cc2cc(Br)ccc2OC1`, the “Relative Growth” value (Saccharomyces cerevisiae [1]) was -0.0044, the “Relative Growth” value (Saccharomyces cerevisiae [2]) was -0.1063 and the “Relative Growth” value (Saccharomyces cerevisiae [3]) was -0.0702.
With `CCn1c(SCC(=O)Nc2cc(C(F)(F)F)ccc2Cl)nc2ccccc2c1=O` the “Relative Growth” value (Saccharomyces cerevisiae [1]) was -0.0156, the “Relative Growth” value (Saccharomyces cerevisiae [2]) was -0.159 and the “Relative Growth” value (Saccharomyces cerevisiae [3]) was -0.0109.
In the case of `Br.CCn1c2c(c(=N)c3c1CCC3)CCCC2`, the “Relative Growth” value (Saccharomyces cerevisiae [1]) was -0.0127, the “Relative Growth” value (Saccharomyces cerevisiae [2]) was -0.0042 and the “Relative Growth” value (Saccharomyces cerevisiae [3]) was -0.135.
With `Cc1cc(Nc2ccc(OCc3ccccc3)cc2)nc2cc(O)ccc12` the “Relative Growth” value (Saccharomyces cerevisiae [1]) was -0.1895, the “Relative Growth” value (Saccharomyces cerevisiae [2]) was 0.3239 and the “Relative Growth” value (Saccharomyces cerevisiae [3]) was 0.0868.
`O=C1c2ccc3c4c(ccc(c24)C(=O)N1CCCCO)C(=O)N(CCCCO)C3=O` was tested, and the “Relative Growth” value (Saccharomyces cerevisiae [1]) was -0.7093, the “Relative Growth” value (Saccharomyces cerevisiae [2]) was -1.0287 and the “Relative Growth” value (Saccharomyces cerevisiae [3]) was -0.136.
With `CC1CCCCN1CCCNC(=O)c1ccc2c(c1)sc1nc(-c3ccc(F)cc3)cn12` (stereo unspecified) the “Relative Growth” value (Saccharomyces cerevisiae [1]) was 0.1056, the “Relative Growth” value (Saccharomyces cerevisiae [2]) was -0.161 and the “Relative Growth” value (Saccharomyces cerevisiae [3]) was 0.083.
With `COc1ccc(-c2nc(NC(=O)CS(=O)(=O)c3ccc(F)cc3)sc2C)cc1` the “Relative Growth” value (Saccharomyces cerevisiae [1]) was 0.0372, the “Relative Growth” value (Saccharomyces cerevisiae [2]) was 0.1484 and the “Relative Growth” value (Saccharomyces cerevisiae [3]) was 0.0127.
For `Cc1ccc(N2C(=O)C3C(C2=O)C2(c4ccccc4)C(=O)C3(c3ccccc3)C(c3ccccc3)=C2c2ccccc2)cc1` (stereo unspecified), the “Relative Growth” value (Saccharomyces cerevisiae [1]) was 0.0552, the “Relative Growth” value (Saccharomyces cerevisiae [2]) was 0.0311 and the “Relative Growth” value (Saccharomyces cerevisiae [3]) was 0.0561.
With `CCN(CC)c1cc(C)c2cc(NC(=O)c3cccc(OC)c3)ccc2n1` the “Relative Growth” value (Saccharomyces cerevisiae [1]) was -0.0149, the “Relative Growth” value (Saccharomyces cerevisiae [2]) was 0.0148 and the “Relative Growth” value (Saccharomyces cerevisiae [3]) was 0.0048.
In the case of `COc1cccc(O)c1CN1CCC2(CCCN(Cc3ccc(F)cc3)C2)C1` (stereo unspecified), the “Relative Growth” value (Saccharomyces cerevisiae [1]) was 0.0312, the “Relative Growth” value (Saccharomyces cerevisiae [2]) was 0.0078 and the “Relative Growth” value (Saccharomyces cerevisiae [3]) was 0.0333.
With `Cc1cc(NC(=O)C2c3ccccc3C(=O)N(CC(C)C)C2c2cccs2)no1` (stereo unspecified) the “Relative Growth” value (Saccharomyces cerevisiae [1]) was -0.0434, the “Relative Growth” value (Saccharomyces cerevisiae [2]) was -0.0882 and the “Relative Growth” value (Saccharomyces cerevisiae [3]) was -0.03.
`Cc1ccc(N2C3c4ccccc4N(S(=O)(=O)c4ccc(C)cc4)C2c2ccccc2N3S(=O)(=O)c2ccc(C)cc2)cc1` was tested, and the “Relative Growth” value (Saccharomyces cerevisiae [1]) was -0.0282, the “Relative Growth” value (Saccharomyces cerevisiae [2]) was -0.3051 and the “Relative Growth” value (Saccharomyces cerevisiae [3]) was -0.0583.
For `Oc1ccc(Br)cc1CN1CCN(Cc2ccc(Cl)cc2)CC1`, the “Relative Growth” value (Saccharomyces cerevisiae [1]) was -0.144, the “Relative Growth” value (Saccharomyces cerevisiae [2]) was -0.4008 and the “Relative Growth” value (Saccharomyces cerevisiae [3]) was 0.004.
In the case of `CCN1CCCC1CNc1[nH]cnc2c3cc(Cl)ccc3nc1-2` (stereo unspecified), the “Relative Growth” value (Saccharomyces cerevisiae [1]) was -0.0942, the “Relative Growth” value (Saccharomyces cerevisiae [2]) was -0.3246 and the “Relative Growth” value (Saccharomyces cerevisiae [3]) was -0.0942.
`Cc1ccc(CN2CCC(C(=O)Nc3ccc(-c4cc5ccccc5[nH]4)cc3)CC2)o1` was tested, and the “Relative Growth” value (Saccharomyces cerevisiae [1]) was -0.0113, the “Relative Growth” value (Saccharomyces cerevisiae [2]) was -0.0247 and the “Relative Growth” value (Saccharomyces cerevisiae [3]) was 0.0612.
`CCOC(=O)c1cnc2ccc(OC)cc2c1Nc1ccc(N2CCN(C)CC2)cc1` was tested, and the “Relative Growth” value (Saccharomyces cerevisiae [1]) was 0.0562, the “Relative Growth” value (Saccharomyces cerevisiae [2]) was -0.1675 and the “Relative Growth” value (Saccharomyces cerevisiae [3]) was -0.0196.
With `CCOc1ccc2nc(C)cc(Nc3ccc(N(C)C)cc3)c2c1.Cl` the “Relative Growth” value (Saccharomyces cerevisiae [1]) was -0.1579, the “Relative Growth” value (Saccharomyces cerevisiae [2]) was -0.2064 and the “Relative Growth” value (Saccharomyces cerevisiae [3]) was -0.2818.
For `CCN(CC)CCNc1ccnc2cc3ccccc3cc12.O=P(O)(O)O`, the “Relative Growth” value (Saccharomyces cerevisiae [1]) was -0.1052, the “Relative Growth” value (Saccharomyces cerevisiae [2]) was -0.0873 and the “Relative Growth” value (Saccharomyces cerevisiae [3]) was 0.0094.
`COc1ccc(-n2ccnc2SCC(=O)Nc2cc(C)ccc2C)c(OC)c1` was tested, and the “Relative Growth” value (Saccharomyces cerevisiae [1]) was -0.0529, the “Relative Growth” value (Saccharomyces cerevisiae [2]) was 0.0762 and the “Relative Growth” value (Saccharomyces cerevisiae [3]) was -0.0469.
`COc1cc2c(cc1OC)C1=NNC(=O)C1=NC(C)(C)C2` was tested, and the “Relative Growth” value (Saccharomyces cerevisiae [1]) was -0.0857, the “Relative Growth” value (Saccharomyces cerevisiae [2]) was -0.3659 and the “Relative Growth” value (Saccharomyces cerevisiae [3]) was -0.48.
With `CCCCc1c(C)nc2c(OC)cccc2c1O` the “Relative Growth” value (Saccharomyces cerevisiae [1]) was -0.0292, the “Relative Growth” value (Saccharomyces cerevisiae [2]) was 0.0348 and the “Relative Growth” value (Saccharomyces cerevisiae [3]) was -0.0392.
For `Cc1sc2ncnc(Sc3nc4ccccc4[nH]3)c2c1C`, the “Relative Growth” value (Saccharomyces cerevisiae [1]) was 0.0477, the “Relative Growth” value (Saccharomyces cerevisiae [2]) was 0.0545 and the “Relative Growth” value (Saccharomyces cerevisiae [3]) was 0.0241.
For `CC1CC2=C(CC1CNCCCN(C)C)C(C)(C)CCC2` (stereo unspecified), the “Relative Growth” value (Saccharomyces cerevisiae [1]) was 0.0086, the “Relative Growth” value (Saccharomyces cerevisiae [2]) was -0.1687 and the “Relative Growth” value (Saccharomyces cerevisiae [3]) was 0.0011.
For `CCOc1c(Br)cc(C2C(C(=O)OC)=CN(C)C=C2C(=O)OC)cc1OC`, the “Relative Growth” value (Saccharomyces cerevisiae [1]) was 0.0663, the “Relative Growth” value (Saccharomyces cerevisiae [2]) was -0.0572 and the “Relative Growth” value (Saccharomyces cerevisiae [3]) was -0.0344.
`Cc1ccccc1OCCSc1nc2ccc(NC(=O)c3ccccc3)cc2s1` was tested, and the “Relative Growth” value (Saccharomyces cerevisiae [1]) was -0.1178, the “Relative Growth” value (Saccharomyces cerevisiae [2]) was -0.0554 and the “Relative Growth” value (Saccharomyces cerevisiae [3]) was -0.3917.
With `COc1ccc(C(C)=O)cc1N1C(=O)C2C(C1=O)C1(c3ccccc3)C(=O)C2(c2ccccc2)C(c2ccc(C)cc2)=C1c1ccc(C)cc1` (stereo unspecified) the “Relative Growth” value (Saccharomyces cerevisiae [1]) was -0.0144, the “Relative Growth” value (Saccharomyces cerevisiae [2]) was 0.0688 and the “Relative Growth” value (Saccharomyces cerevisiae [3]) was -0.992.
With `COc1ccc(NC(=O)C2c3ccccc3C(=O)N(CC(C)C)C2c2cccs2)cc1` (stereo unspecified) the “Relative Growth” value (Saccharomyces cerevisiae [1]) was 0.0442, the “Relative Growth” value (Saccharomyces cerevisiae [2]) was -0.1656 and the “Relative Growth” value (Saccharomyces cerevisiae [3]) was -0.1052.
In the case of `COc1cc(-c2nc(-c3ccc(Sc4ccccc4)cc3)c(-c3ccccc3)[nH]2)cc(OC)c1O`, the “Relative Growth” value (Saccharomyces cerevisiae [1]) was -0.0129, the “Relative Growth” value (Saccharomyces cerevisiae [2]) was -0.2127 and the “Relative Growth” value (Saccharomyces cerevisiae [3]) was -0.0314.
In the case of `CC(=O)c1ccc(NC(=O)CSc2nc(-c3ccccc3Cl)ns2)cc1`, the “Relative Growth” value (Saccharomyces cerevisiae [1]) was 0.0088, the “Relative Growth” value (Saccharomyces cerevisiae [2]) was 0.0011 and the “Relative Growth” value (Saccharomyces cerevisiae [3]) was -0.0294.
With `COc1ccc(C2c3ccc4ccccc4c3Oc3ncn(CCCn4ccnc4)c(=N)c32)cc1OC` (stereo unspecified) the “Relative Growth” value (Saccharomyces cerevisiae [1]) was -0.111, the “Relative Growth” value (Saccharomyces cerevisiae [2]) was 0.1296 and the “Relative Growth” value (Saccharomyces cerevisiae [3]) was 0.015.
